From the NIST ThermoML archive (doi:10.1021/je201349k)
Numbers after ± are expanded uncertainties. Blank lines part the entries; values can stand above or below the compound they belong to.

Conditions: Liquid

vapor or sublimation pressure (425.15 K): 101 ± 0.86 kPa
SMILES: CN(C)C=O [dimethylformamide]

vapor or sublimation pressure (317.55 K): 101 ± 0.86 kPa
SMILES: CC(C)(C)N [2-methyl-2-propanamine]

vapor or sublimation pressure (337.85 K): 101 ± 0.86 kPa
SMILES: CO [methanol]
